Measurements reported in patent US20110318741A1, “BIOMARKERS FOR THE TREATMENT OF PSORIASIS” (priority 2010, published 2011).

What was measured:
psoriasis lesional skin = test: Histological analysis (immunohistochemistry, H&E) of skin biopsies from psoriasis patients in a clinical trial; assay type: in vivo, human; conditions: week 4 biopsies; 20 mg b.i.d.
Description: Skin biopsies were evaluated on 20 patients in a clinical trial, where 20 mg of (S)—N-(2-(1-(3-ethoxy-4-methoxyphenyl)-2-(methylsulfonyl)ethyl)-1,3-dioxoisoindolin-4-yl)acetamide was administered b.i.d. to patients with psoriasis. Skin biopsies were done 4 weeks and 12 weeks post-treatment.
The biopsies were subjected to a histological analysis in which response was assessed in H&E stained sections of skin biopsies and after staining frozen sections of skin biopsies with antibodies to keratin 16. CD3, CD11c. ICAM-1. Langerin, CD56, Foxp3, and HLA-DR. This analysis thus included an assessment of epidermal growth/differentiation, skin infiltration by T-cells and DC subsets, presence of regulatory T-cells, and presence of inflammation-regulating molecules in skin lesions.
(§1) The pharmacodynamic effects of (S)—N-(2-(1-(3-ethoxy-4-methoxyphenyl)-2-(methylsulfonyl)ethyl)-1,3-dioxoisoindolin-4-yl)acetamide were studied in skin biopsies from subjects treated with the compound in a phase 2, multi-center, open-label study evaluating the safety, tolerability, and efficacy of the compound in recalcitrant psoriasis vulgaris. Skin biopsies were taken from uninvolved and involved skin at baseline, and from involved skin after treatment with (S)—N-(2-(1-(3-ethoxy-4-methoxyphenyl)-2-(methylsulfonyl)ethyl)-1,3-dioxoisoindolin-4-yl)acetamide 20 mg BID after 4 and 12 weeks.
Skin biopsies were evaluated on 20 patients in this trial. The biopsies were analyzed by immunohistochemistry for a set of cellular markers (keratin 16, CD3. CD11c. ICAM-1, Langerin, CD56, Foxp3, and HLA-DR) to assess epidermal growth/differentiation, skin infiltration by T-cells and dendritic cells (DC), presence of regulatory T-cells, and the presence of inflammation-regulating molecules in skin lesions.

[1] = test system: recalcitrant psoriasis vulgaris; test: PASI score in phase 2, multi-center, open-label study; assay type: in vivo, human; conditions: for PSAI Median Change (%): 20 mg BID; for subjects who had PASI-75 response: week 12
Excerpt: as §1
Additionally, the reductions observed from biopsies were evaluated separately in responders and non-responders.
To identify changes in cellular infiltration or gene expression that correlate with changes in PASI score, a correlation analysis was performed using the Spearman rank-order correlation method. […] A strong trend was observed between the decrease in CD11c+myeloid DC in the epidermis the decrease in PASI score at week 4 (p=0.052).

For `CCOc1cc([C@@H](CS(C)(=O)=O)N2C(=O)c3cccc(NC(C)=O)c3C2=O)ccc1OC` [(S)—N-(2-(1-(3-ethoxy-4-methoxyphenyl)-2-(methylsulfonyl)ethyl)-1,3-dioxoisoindolin-4-yl)acetamide], the “median reduction of dermal CD11c+ DCs” value (psoriasis lesional skin) was 45%, the “PSAI Median Change (%)” value ([1]; Week 4, subjects also with CD3 in Dermis values, No. 19) was −29.0% and the “PSAI Median Change (%)” value ([1]; Week 4, subjects also with CD3 in Epidermis values, No. 19) was −29.0%. The “PSAI Median Change (%)” value ([1]; Week 4, subjects also with CD11c in Dermis values, No. 20) was −32.0%, the “PSAI Median Change (%)” value ([1]; Week 4, subjects also with CD11c in Epidermis values, No. 18) was −26.5% and the “PSAI Median Change (%)” value ([1]; Week 4, subjects also with CD56 in Dermis values, No. 20) was −32.0%. For the same molecule, the “PSAI Median Change (%)” value ([1]; Week 4, subjects also with CD56 in Epidermis values, No. 16) was −15.0%, the “PSAI Median Change (%)” value ([1]; Week 4, subjects also with CD83/hARP values, No. 15) was −18.0% and the “PSAI Median Change (%)” value ([1]; Week 4, subjects also with CXCL9/hARP values, No. 17) was −29.0%. For the same molecule, the “PSAI Median Change (%)” value ([1]; Week 4, subjects also with DEFB4/hARP values, No. 16) was −23.5%, the “PSAI Median Change (%)” value ([1]; Week 4, subjects also with IFNγ/hARP values, No. 15) was −35.0% and the “PSAI Median Change (%)” value ([1]; Week 4, subjects also with IL-2/hARP values, No. 12) was −32.0%. For the same molecule, the “PSAI Median Change (%)” value ([1]; Week 4, subjects also with IL-8/hARP values, No. 18) was −32.0%, the “PSAI Median Change (%)” value ([1]; Week 4, subjects also with IL-10/hARP values, No. 18) was −32.0% and the “PSAI Median Change (%)” value ([1]; Week 4, subjects also with IL-17A/hARP values, No. 16) was −23.5%. The “PSAI Median Change (%)” value ([1]; Week 4, subjects also with IL-22/hARP values, No. 10) was −18.5%, the “PSAI Median Change (%)” value ([1]; Week 4, subjects also with K16/hARP values, No. 18) was −32.0% and the “PSAI Median Change (%)” value ([1]; Week 4, subjects also with Langerin in Dermis values, No. 17) was −18.0%. For the same molecule, the “PSAI Median Change (%)” value ([1]; Week 4, subjects also with Langerin in Epidermis values, No. 20) was −32.0%, the “PSAI Median Change (%)” value ([1]; Week 4, subjects also with MX1/hARP values, No. 17) was −29.0% and the “PSAI Median Change (%)” value ([1]; Week 4, subjects also with TNFα/hARP values, No. 17) was −29.0%. For the same molecule, the “PSAI Median Change (%)” value ([1]; Week 4, subjects also with Thickness values, No. 19) was −29.0%, the “PSAI Median Change (%)” value ([1]; Week 4, subjects also with iNOS/hARP values, No. 15) was −35.0% and the “PSAI Median Change (%)” value ([1]; Week 4, subjects also with p19/hARP values, No. 18) was −32.0%. The “PSAI Median Change (%)” value ([1]; Week 4, subjects also with p40/hARP values, No. 13) was −29.0%, the “PSAI Median Change (%)” value ([1]; Week 12, subjects also with CD3 in Dermis values, No. 15) was −48.0% and the “PSAI Median Change (%)” value ([1]; Week 12, subjects also with CD3 in Epidermis values, No. 15) was −48.0%. For the same molecule, the “PSAI Median Change (%)” value ([1]; Week 12, subjects also with CD11c in Dermis values, No. 14) was −52.5%, the “PSAI Median Change (%)” value ([1]; Week 12, subjects also with CD11c in Epidermis values, No. 13) was −45.0% and the “PSAI Median Change (%)” value ([1]; Week 12, subjects also with CD56 in Dermis values, No. 15) was −48.0%. The “PSAI Median Change (%)” value ([1]; Week 12, subjects also with CD56 in Epidermis values, No. 12) was −42.5%, the “PSAI Median Change (%)” value ([1]; Week 12, subjects also with CD83/hARP values, No. 11) was −48.0% and the “PSAI Median Change (%)” value ([1]; Week 12, subjects also with CXCL9/hARP values, No. 11) was −48.0%. For the same molecule, the “PSAI Median Change (%)” value ([1]; Week 12, subjects also with DEFB4/hARP values, No. 10) was −46.5%, the “PSAI Median Change (%)” value ([1]; Week 12, subjects also with IFNγ/hARP values, No. 12) was −54.0% and the “PSAI Median Change (%)” value ([1]; Week 12, subjects also with IL-2/hARP values, No. 10) was −54.0%. For the same molecule, the “PSAI Median Change (%)” value ([1]; Week 12, subjects also with IL-8/hARP values, No. 14) was −54.0%, the “PSAI Median Change (%)” value ([1]; Week 12, subjects also with IL-10/hARP values, No. 14) was −54.0% and the “PSAI Median Change (%)” value ([1]; Week 12, subjects also with IL-17A/hARP values, No. 10) was −46.5%. The “PSAI Median Change (%)” value ([1]; Week 12, subjects also with IL-22/hARP values, No. 6) was −46.5%, the “PSAI Median Change (%)” value ([1]; Week 12, subjects also with K16/hARP values, No. 14) was −54.0% and the “PSAI Median Change (%)” value ([1]; Week 12, subjects also with Langerin in Dermis values, No. 12) was −54.0%. The “PSAI Median Change (%)” value ([1]; Week 12, subjects also with Langerin in Epidermis values, No. 15) was −48.0%, the “PSAI Median Change (%)” value ([1]; Week 12, subjects also with MX1/hARP values, No. 11) was −48.0% and the “PSAI Median Change (%)” value ([1]; Week 12, subjects also with TNFα/hARP values, No. 13) was −60.0%. For the same molecule, the “PSAI Median Change (%)” value ([1]; Week 12, subjects also with Thickness values, No. 14) was −46.5%, the “PSAI Median Change (%)” value ([1]; Week 12, subjects also with iNOS/hARP values, No. 11) was −48.0% and the “PSAI Median Change (%)” value ([1]; Week 12, subjects also with p19/hARP values, No. 14) was −54.0%. The “PSAI Median Change (%)” value ([1]; Week 12, subjects also with p40/hARP values, No. 7) was −48.0%, the “subjects who had PASI-75 response” value ([1]; IFNγ analysis set (eight subjects non PASI-75)) was “four” and the “subjects who had PASI-75 response” value ([1]; Langerin in dermis analysis set (ten subjects non PASI-75)) was “four”.
